Source: patent US4795826A, “Ortho-phenylenediamine compounds” (priority 1986, dated 1989)

What was measured:
P388 leukemia = P388 leukemia in vivo (increase in lifespan of mice, i.p. tumour); settings: for ILSmax (percentage increase in lifespan) / ILSmax (percentage increase in lifespan), marked *: P388, at OD on days 1, 5, 9, >20% statistically significant; for ILSmax (percentage increase in lifespan): values without asterisk, controls 11 days; for active (P388): P388, at the stated dose
Lewis lung carcinoma = Lewis lung carcinoma in vivo (increase in lifespan of mice, i.v. tumour); settings: Lewis lung; for ILS (percentage increase in lifespan) / ILS (percentage increase in lifespan), marked *: at OD on days 1, 5, 9, >40% statistically significant; for ILS (percentage increase in lifespan): values without asterisk, controls 17 days; for active (Lewis lung): at the stated dose

Row | SMILES | ILSmax (percentage increase in lifespan) (P388 leukemia) [%] | active (P388) (P388 leukemia) | further results
1 | CNc1cc(NS(C)(=O)=O)ccc1Nc1c2ccccc2nc2cc(C)ccc12 [Compound 3] | 83 | Y | 
2 | CNc1cc(NS(C)(=O)=O)ccc1Nc1c2ccccc2nc2cc(OC)ccc12 [Compound 4] |  | Y | ILSmax (percentage increase in lifespan), marked * (P388 leukemia): 140%
3 | CNc1cc(NS(C)(=O)=O)ccc1Nc1c2ccccc2nc2cc(F)ccc12 [Compound 5] |  | Y | ILSmax (percentage increase in lifespan), marked * (P388 leukemia): 157%
4 | CNc1cc(NS(C)(=O)=O)ccc1Nc1c2ccccc2nc2cc(Cl)ccc12 [Compound 6] |  | Y | ILSmax (percentage increase in lifespan), marked * (P388 leukemia): 149%
5 | CNc1cc(NS(C)(=O)=O)ccc1Nc1c2ccccc2nc2cc(Br)ccc12 [Compound 7] | 94 | Y | 
6 | CNc1cc(NS(C)(=O)=O)ccc1Nc1c2ccccc2nc2cc(I)ccc12 [Compound 8] | 80 | Y | 
7 | CNc1cc(NS(C)(=O)=O)ccc1Nc1c2ccccc2nc2cc([N+](=O)[O-])ccc12 [Compound 9] | 70 | Y | 
8 | CNc1ccc2c(Nc3ccc(NS(C)(=O)=O)cc3NC)c3ccccc3nc2c1 [Compound 10] |  | Y | ILSmax (percentage increase in lifespan), marked * (P388 leukemia): 208%
9 | CNc1cc(NS(C)(=O)=O)ccc1Nc1c2ccccc2nc2cc(NC(=O)OC)ccc12 [Compound 11] |  | Y | ILSmax (percentage increase in lifespan), marked * (P388 leukemia): 135%
10 | CNc1cc(NS(C)(=O)=O)ccc1Nc1c2ccccc2nc2c(OC)cccc12 [Compound 13] |  | Y | ILSmax (percentage increase in lifespan), marked * (P388 leukemia): 118%; ILS (percentage increase in lifespan) (Lewis lung carcinoma): 153%; active (Lewis lung) (Lewis lung carcinoma): Y
11 | CNC(=O)c1cccc2c(Nc3ccc(NS(C)(=O)=O)cc3NC)c3ccccc3nc12 [Compound 15] | 82 | Y | 
12 | CNc1cc(NS(C)(=O)=O)ccc1Nc1c2ccc(C)cc2nc2c(C)cccc12 [Compound 16] | 92 | Y | 
13 | CNc1cc(NS(C)(=O)=O)ccc1Nc1c2ccc(OC)cc2nc2c(C)cccc12 [Compound 17] | 102 | Y | 
14 | CNc1cc(NS(C)(=O)=O)ccc1Nc1c2ccc(F)cc2nc2c(C)cccc12 [Compound 18] |  | Y | ILSmax (percentage increase in lifespan), marked * (P388 leukemia): 152%; ILS (percentage increase in lifespan), marked * (Lewis lung carcinoma): 143%; active (Lewis lung) (Lewis lung carcinoma): Y
15 | CNc1cc(NS(C)(=O)=O)ccc1Nc1c2ccc(Cl)cc2nc2c(C)cccc12 [Compound 19] |  | Y | ILSmax (percentage increase in lifespan), marked * (P388 leukemia): 128%; ILS (percentage increase in lifespan) (Lewis lung carcinoma): 126%; active (Lewis lung) (Lewis lung carcinoma): Y
16 | CNc1cc(NS(C)(=O)=O)ccc1Nc1c2ccc(Cl)cc2nc2c(OC)cccc12 [Compound 20] | 105 | Y | 
17 | CNc1cc(NS(C)(=O)=O)ccc1Nc1c2ccc(Br)cc2nc2c(C)cccc12 [Compound 21] | 122 | Y | 
18 | CNc1cc(NS(C)(=O)=O)ccc1Nc1c2ccc(C)cc2nc2c(OC)cccc12 [Compound 22] | 122 | Y | 
19 | CNC(=O)c1cccc2c(Nc3ccc(NS(C)(=O)=O)cc3NC)c3ccc(Cl)cc3nc12 [Compound 23] | 59 | Y | 
20 | CNC(=O)c1cccc2c(Nc3ccc(NS(C)(=O)=O)cc3NC)c3cccc(C)c3nc12 [Compound 24] | 94 | Y | 
21 | CNc1cc(NS(C)(=O)=O)ccc1Nc1c2cccc(C)c2nc2c(C)cccc12 [Compound 25] | 107 | Y | 
22 | CNc1cc(NS(C)(=O)=O)ccc1Nc1c2cccc(OC)c2nc2c(OC)cccc12 [Compound 26] | 84 | Y | 
23 | CS(=O)(=O)Nc1ccc(Nc2c3ccccc3nc3ccccc23)c(NCCO)c1 [Compound 27] | 89 | Y | 
24 | CS(=O)(=O)Nc1ccc(Nc2c3ccccc3nc3cc(Br)ccc23)c(NCCO)c1 [Compound 28] | 117 | Y | 
25 | Cc1cccc2c(Nc3ccc(NS(C)(=O)=O)cc3NCCO)c3ccccc3nc12 [Compound 29] |  | Y | ILSmax (percentage increase in lifespan), marked * (P388 leukemia): 159%

Row | SMILES | ILSmax (percentage increase in lifespan) (P388 leukemia) [%] | active (P388) (P388 leukemia) | further results
26 | CS(=O)(=O)Nc1ccc(Nc2c3ccccc3nc3ccccc23)c(NCC(O)CO)c1 (stereo not drawn) [Compound 30] | 84 | Y | 
27 | Cc1cccc2c(Nc3ccc(NS(C)(=O)=O)cc3NCC(O)CO)c3ccccc3nc12 (stereo not drawn) [Compound 31] | 83 | Y | 
28 | CN(C)c1cc(NS(C)(=O)=O)ccc1Nc1c2ccccc2nc2ccccc12 [Compound 32] |  | Y | ILSmax (percentage increase in lifespan), marked * (P388 leukemia): 212%; cured animals (Lewis lung carcinoma; at OD): all cured; ILS (percentage increase in lifespan) (Lewis lung carcinoma): > 250%; active (Lewis lung) (Lewis lung carcinoma): Y
29 | CN(CCO)c1cc(NS(C)(=O)=O)ccc1Nc1c2ccccc2nc2ccccc12 [Compound 45] |  | Y | ILSmax (percentage increase in lifespan), marked * (P388 leukemia): 100%
30 | Cc1cccc2c(Nc3ccc(NS(C)(=O)=O)cc3N(C)CCO)c3ccccc3nc12 [Compound 46] |  | Y | ILSmax (percentage increase in lifespan), marked * (P388 leukemia): 152%
31 | CNc1cc(NP(=O)(OC)OC)ccc1Nc1c2ccccc2nc2ccccc12 [Compound 47] | 118 | Y | 
32 | CNc1cc(NP(=O)(OC)OC)ccc1Nc1c2ccccc2nc2cc(Br)ccc12 [Compound 48] | 77 | Y | 
33 | CNc1cc(NP(=O)(OC)OC)ccc1Nc1c2ccccc2nc2c(C)cccc12 [Compound 49] | 91 | Y | 
34 | CNc1cc(NC(=O)OC)ccc1Nc1c2ccccc2nc2ccccc12 [Compound 50] | 132 | Y | ILS (percentage increase in lifespan), marked * (Lewis lung carcinoma): 122%; active (Lewis lung) (Lewis lung carcinoma): Y
35 | COC(=O)Nc1ccc(Nc2c3ccccc3nc3ccccc23)c(NCCO)c1 [Compound 51] | 121 | Y | 
36 | CNc1cc(NC(=O)OC)ccc1Nc1c2ccccc2nc2cc(C)ccc12 [Compound 52] | 86 | Y | 
37 | CNc1cc(NC(=O)OC)ccc1Nc1c2ccccc2nc2cc(F)ccc12 [Compound 53] | 110 | Y | 
38 | CNc1cc(NC(=O)OC)ccc1Nc1c2ccccc2nc2cc(Cl)ccc12 [Compound 54] | 104 | Y | 
39 | CNc1cc(NC(=O)OC)ccc1Nc1c2ccccc2nc2cc(Br)ccc12 [Compound 55] | 101 | Y | 
40 | CNc1cc(NC(=O)OC)ccc1Nc1c2ccc(Cl)cc2nc2c(C)cccc12 [Compound 56] |  | Y | ILSmax (percentage increase in lifespan), marked * (P388 leukemia): 151%; ILS (percentage increase in lifespan) (Lewis lung carcinoma): 100%; active (Lewis lung) (Lewis lung carcinoma): Y
41 | CNc1cc(NC(=O)OC)ccc1Nc1c2ccc(Br)cc2nc2c(C)cccc12 [Compound 57] | 97 | Y | ILS (percentage increase in lifespan), marked * (Lewis lung carcinoma): 82%; active (Lewis lung) (Lewis lung carcinoma): Y
42 | CNc1cc(NC(=O)OC)ccc1Nc1c2ccccc2nc2c(C)cccc12 [Compound 58] | 114 | Y | ILS (percentage increase in lifespan), marked * (Lewis lung carcinoma): 48%; active (Lewis lung) (Lewis lung carcinoma): Y
43 | COC(=O)Nc1ccc(Nc2c3ccccc3nc3ccccc23)c(N(C)C)c1 [Compound 59] | 51 | Y | 
44 | CNc1cc(NS(=O)(=O)c2ccccc2)ccc1Nc1c2ccccc2nc2ccccc12 [Compound 60] | 117 | Y | 
45 | O=S(=O)(Nc1ccc(Nc2c3ccccc3nc3ccccc23)c(NCCO)c1)c1ccccc1 [Compound 61] | 81 | Y | 
46 | CNc1cc(NS(=O)(=O)c2ccc(N)cc2)ccc1Nc1c2ccccc2nc2ccccc12 [Compound 62] | 104 | Y | 
47 | CNc1cc(NS(=O)(=O)c2ccc(N)cc2)ccc1Nc1c2ccccc2nc2cc(Br)ccc12 [Compound 63] | 115 | Y | 
48 | CNc1cc(NS(=O)(=O)c2ccc(N)cc2)ccc1Nc1c2ccccc2nc2c(C)cccc12 [Compound 64] | 139 | Y | 
49 | Nc1ccc(S(=O)(=O)Nc2ccc(Nc3c4ccccc4nc4ccccc34)c(NCCO)c2)cc1 [Compound 65] | 50 | Y | 
50 | CNc1cc(NC(=O)Oc2ccccc2)ccc1Nc1c2ccccc2nc2ccccc12 [Compound 66] | 71 | Y | 
